US12665203B2, “Organo-metallic analytes for nonaqueous redox flow batteries” (The Regents of the University of California, priority 2020, dated 2026)
Read-outs that look alike come from different tables or passages of the source.

Key:
[1] = Cyclic voltammetry: redox potentials, diffusion coefficients, electron-transfer rate constants; type: physicochemical
[2] = Charging/discharging, asymmetric H-cell, anion exchange membrane separator
Procedure: Complex 2b was also tested as an analyte in an asymmetric cell configuration because this allowed us to achieve a cell design where up to four electrons are stored during each charge and discharge cycle. Using an AEM as separator, potentials and currents were initially chosen to maximize the energy density of the cell: storing 4 electrons in the battery. Over 10 cycles and 45 h, a Coulombic efficiency of 98% was observed (FIGS. 17A-C). […] An asymmetric cell with 2b functioning as a four-electron analyte could be revisited as AEM technology is refined.
Charge-discharge studies were performed inside of a glovebox under an inert atmosphere using a CH Instruments Electrochemical Analyzer Model 1400. The custom H-cell was designed by Adams and Chittenden (FIGS. 21A-B and 22) with compartments separated by an AMI-7001S Anion exchange membrane (Membrane International Inc.) or glass frit. If a membrane was used, it was soaked in 0.5 M nBu4NBF4MeCN electrolyte solution for 48 h prior to use. […] In the asymmetric studies, the counter compartment contained only 3.5 mL 0.5 M nBu4NBF4MeCN electrolyte solution, and an isomolded graphite rod counter electrode. […]

[3] = Cyclic voltammetry: redox potentials, diffusion coefficients, electron-transfer rate constants; type: physicochemical; conditions: for D0: calculated using eq 2 (Randles-Sevcik); for D0 / k0: GC electrode; for k0: calculated using eq 4 (Nicholson method)
Procedure: These redox events correspond to the 2b^+/2b couple at +0.08 V, the 2b/2b^− couple at −0.20 V, the 2b^−/2b^2− couple at −0.90 V, and the 2b^2−/2b^3− couple at −1.38 V vs SCE.
The mass transport and electrokinetics of 2b were also evaluated because a RFB analyte must have fast diffusion kinetics (D) and heterogeneous electron-transfer rate (k0) to have a high rate capability. Roughly, k0 of 10^−5 cm/s is considered a minimum requirement, and this minimum requirement is met by most of the recently studied NRFB analytes. The rate is also dependent on the electrode material, and is generally orders of magnitude higher when using Hg, Pt, or Au electrodes. For this reason, kinetic parameters were probed using a glass carbon (GC) button electrode. CV's were recorded of 2b at varying scan rates, and the D values were determined by plotting the current density versus the square root of the scan rate (FIGS. 6A-C). From the slope of the linear fit of this line and the Randles-Sevcik equation (see equations below), D for each redox couple was obtained (eq. 2). Plots of the inverse of the square root of the scan rate versus the transfer parameter (ψ), extracted from the peak to peak separation (ΔEp), were also constructed, so that k0 could be calculated using the Nicholson method (TABLE 5, eq 3-4). For each redox couple D is on the order of 10^−6 cm^2/s, and k0 is on the order of 10^−3 cm/s (TABLE 5).
All potentials are referenced to the SCE couple, and ferrocene was used as an external standard where the E/of ferrocene/ferrocenium is +0.40 V vs. SCE in 0.1 M Bu4NPF6MeCN. Bu4NPF6 was recrystallized from ethanol and placed under vacuum for 72 hours before electrolyte solutions were made. Electrolyte solutions were stored over 3 Å molecular sieves for at least 48 hours before use. Sieves were activated by heating under vacuum at 270° C. for at least 72 hours. UV-Vis spectra were obtained using a 1 cm cuvette using an Agilent 8453 UV-vis spectrophotometer.
The diffusion coefficients for each redox couple were determined by first plotting CV's of 2b at varying scan rates (0.2-8 V/s) (FIG. 10). The diffusion coefficients were then determined from the slope of the peak current density (jp) versus the square root of the scan rate (υ^1/2):
[…], transfer parameter (ψ) was calculated by obtaining the peak to peak separation of each redox couple (ΔEp), at varying scan rates (0.2-8 V/s) (FIG. 10):
[formula] The electron transfer rate constant (k0) was then extracted from the slope of a plot of versus υ^1/2 (FIG. 10):
[formula] where n is the number of electrons transferred, F is the Faraday constant (96485 Cmol^−1), D is the averaged diffusion coefficient for the oxidation and reduction reaction (DO and DR) (cm^2/s), υ is the scan rate (V/s), R is the ideal gas constant (8.314 J/mol-K) and T is the temperature (K). Calculation 4.

[4] = Charging/discharging, symmetric NRFB H-cell, glass frit separator; conditions: after three weeks of charging/discharging
Procedure: Complex 2b was tested in both symmetric and asymmetric NRFB configurations and in both cases, an anion exchange membrane (AEM), and a glass frit as separator between the working electrode and counter electrode compartments were trialed. […] A current of 0.2 mA for the charge and 0.2 mA for the discharge were chosen as described below. Two consecutive plateaus are observed for each charging and discharging process, indicative of two electron transfer processes (FIGS. 12A-B and 13).
The first plateau at −0.97 V is determined by the oxidation of 2b^− to 2b in the cathodic compartment, and the concurrent reduction of 2b^− to 2b^2− in the anodic compartment. The second plateau at −0.21 V is determined by the oxidation of 2b to 2b^+ in the cathodic compartment, with concurrent reduction of 2b^2− to 2b^3− in the anodic compartment. Upon discharge, the reduction of 2b^+ to 2b and 2b to 2b^− in the cathodic compartment results in a small potential drop, with discharging plateaus of −0.98 and −0.24 V, respectively.
Charge-discharge studies were performed inside of a glovebox under an inert atmosphere using a CH Instruments Electrochemical Analyzer Model 1400. The custom H-cell was designed by Adams and Chittenden (FIGS. 21A-B and 22) with compartments separated by an AMI-7001S Anion exchange membrane (Membrane International Inc.) or glass frit. […]

[5] = Working electrode screen, extended cycling; conditions: GC electrodes, 100 cycles
From the text: Potential working electrodes for the NRFB cell tests were also screened. GC, reticulated vitreous carbon (RVC, 20, 80 and 100 PPI), graphite rods, and carbon felt which are all commonly employed as working electrodes in NRFB applications were examined.

[6] = symmetric NRFB, cited from earlier work

## [(I2P^−)2Al][OTf] [2b]
[1]; CV, 0.5 M Bu4NBF4 MeCN
  redox potential, 2b/2b^− couple: −0.20 V vs SCE
  redox potential, 2b^2−/2b^3− couple: −1.38 V vs SCE
  redox potential, 2b^+/2b couple: +0.08 V vs SCE
  redox potential, 2b^−/2b^2− couple: −0.90 V vs SCE
[1]; couple 2b^2+/1+
  E1/2: 0.06 V vs SCE
[2]; asymmetric NRFB configuration, multiple cycles, separator not stated
  degradation of the analyte: no degradation of the analyte
[2]; asymmetric cell, AEM, after 45 h
  decomposition of the analyte: Decomposition of the analyte was observed
[3]; couple 2b^0/1−
  E1/2: −1.08 V vs SCE
  D0: 6.3 (5.5) 10^−6 cm^2/s
  k0: 13 ± 2.7 × 10^−3 cm/s
[3]; couple 2b^1+/0
  E1/2: −0.30 V vs SCE
  D0: 5.1 (4.9) 10^−6 cm^2/s
  k0: 8.9 ± 1.2 × 10^−3 cm/s
[3]; couple 2b^1−/2−
  E1/2: −1.51 V vs SCE
  D0: 9.9 (4.6) 10^−6 cm^2/s
  k0: 10 ± 2.1 × 10^−3 cm/s
[3]; couple 2b^2+/1+
  D0: 4.7 (6.8) 10^−6 cm^2/s
  k0: 8.1 ± 1.7 × 10^−3 cm/s
[3]; each redox couple
  D, order of magnitude: ~10^−6 cm^2/s
  k0, order of magnitude: ~10^−3 cm/s
[4]
  degradation of analyte: Partial degradation
[5]
  stability of analyte remaining in solution: stable to extended cycling in solution

## C1=Cc2nc1c(-c1ccccc1)c1ccc([nH]1)c(-c1ccccc1)c1nc(c(-c3ccccc3)c3ccc([nH]3)c2-c2ccccc2)C=C1 [H2TPP]
[6]; solvent CH2Cl2
  Cactive: 10 mM

## [bpy(COOMe)2]3Cr
[6]; solvent MeCN
  Cactive: 210 mM

## phthalocyanine Mn-nitride [PcMnN]
[6]; solvent MeCN
  Cactive: 1 mM

## COCCOCCOCCNc1ccc(NCCOCCOCCOC)c2c1C(=O)c1ccccc1C2=O [(Me-TEG)2DAAQ]
[6]; solvent DME
  Cactive: 1000 mM
